In brackets after ≈: the same amount, converted by molar mass. Like-named read-outs stand apart in the source and are kept apart here.
Tests used:
MtbCoaBC [1] = molecular target: T1, MtbCoaBC (Mycobacterium tuberculosis, UniProt P9WNZ1); assay: biochemical; type: biochemical; details: for activity at 0.03125 µM / activity at 0.0625 µM / activity at 0.25 µM / activity at 0.5 µM / activity at 1 µM / activity at 2 µM: relative to average DMSO CT; for Activity R1 / Activity R3: slope of absorbance at 360 nm vs time (s); for IC50: read-out: IC50 EnzChek MtbCoaBC
T1 sequence (P9WNZ1 whole entry): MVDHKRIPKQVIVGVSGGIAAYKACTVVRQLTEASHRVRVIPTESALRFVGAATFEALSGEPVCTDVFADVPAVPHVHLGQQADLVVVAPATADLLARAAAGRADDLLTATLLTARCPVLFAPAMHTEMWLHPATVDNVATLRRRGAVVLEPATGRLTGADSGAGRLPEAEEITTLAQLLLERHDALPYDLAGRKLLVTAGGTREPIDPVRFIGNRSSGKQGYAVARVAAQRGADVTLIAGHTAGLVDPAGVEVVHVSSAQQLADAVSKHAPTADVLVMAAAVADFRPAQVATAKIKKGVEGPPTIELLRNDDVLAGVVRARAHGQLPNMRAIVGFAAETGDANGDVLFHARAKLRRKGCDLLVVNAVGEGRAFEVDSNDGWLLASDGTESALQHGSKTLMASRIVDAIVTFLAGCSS

MtbCoaBC [2] = molecular target: T1, MtbCoaBC; assay: High-throughput end-point pyrophosphate quantification assay (Biomol Green); type: biochemical; details: MtbCoaB activity; end-point, 2 µM CTP, 40 µM L-cysteine, 30 µM PPA; read-out: IC50 biomol green assay
M. tuberculosis H37Rv = assay: MIC determination in different media; type: cell-based; details: Mycobacterium tuberculosis, read-out: Minimum inhibitory concentration (MIC)
[3] = uM 1c 0.125 as printed, replicates R1-R3

Structure (SMILES): O=c1cc(-c2ccc(O)cc2)oc2c(O)c(O)ccc12 [2e]
- inhibition at 0.03125 µM (MtbCoaBC [1]; 0.03125 uM 2e, replicate R1, read-out: Inhibition % R1): 5.66%
- activity at 0.03125 µM (MtbCoaBC [1]; 0.03125 uM 2e, replicate R1, read-out: Activity % R1): 94.3%
- Activity R1 (MtbCoaBC [1]; 0.03125 uM 2e, replicate R1): 0.0001715
- inhibition at 0.03125 µM (MtbCoaBC [1]; 0.03125 uM 2e, replicate R2, read-out: Inhibition % R2): 2.73%
- activity at 0.03125 µM (MtbCoaBC [1]; 0.03125 uM 2e, replicate R2, read-out: Activity % R2): 97.3%
- inhibition at 0.03125 µM (MtbCoaBC [1]; 0.03125 uM 2e, replicate R3, read-out: Inhibition % R3): 8.32%
- activity at 0.03125 µM (MtbCoaBC [1]; 0.03125 uM 2e, replicate R3, read-out: Activity % R3): 91.7%
- Activity R3 (MtbCoaBC [1]; 0.03125 uM 2e, replicate R3): 0.0001667
- inhibition at 0.0625 µM (MtbCoaBC [1]; 0.0625 uM 2e, replicate R1, read-out: Inhibition % R1): 10.7%
- activity at 0.0625 µM (MtbCoaBC [1]; 0.0625 uM 2e, replicate R1, read-out: Activity % R1): 89.3%
- Activity R1 (MtbCoaBC [1]; 0.0625 uM 2e, replicate R1): 0.0001624
- inhibition at 0.0625 µM (MtbCoaBC [1]; 0.0625 uM 2e, replicate R2, read-out: Inhibition % R2): 12.6%
- activity at 0.0625 µM (MtbCoaBC [1]; 0.0625 uM 2e, replicate R2, read-out: Activity % R2): 87.4%
- inhibition at 0.0625 µM (MtbCoaBC [1]; 0.0625 uM 2e, replicate R3, read-out: Inhibition % R3): 12.3%
- activity at 0.0625 µM (MtbCoaBC [1]; 0.0625 uM 2e, replicate R3, read-out: Activity % R3): 87.7%
- Activity R3 (MtbCoaBC [1]; 0.0625 uM 2e, replicate R3): 0.0001594
- inhibition at 0.25 µM (MtbCoaBC [1]; 0.25 uM 2e, replicate R1, read-out: Inhibition % R1): 38.7%
- activity at 0.25 µM (MtbCoaBC [1]; 0.25 uM 2e, replicate R1, read-out: Activity % R1): 61.3%
- Activity R1 (MtbCoaBC [1]; 0.25 uM 2e, replicate R1): 0.0001114
- inhibition at 0.25 µM (MtbCoaBC [1]; 0.25 uM 2e, replicate R2, read-out: Inhibition % R2): 33.5%
- activity at 0.25 µM (MtbCoaBC [1]; 0.25 uM 2e, replicate R2, read-out: Activity % R2): 66.5%
- inhibition at 0.25 µM (MtbCoaBC [1]; 0.25 uM 2e, replicate R3, read-out: Inhibition % R3): 37.4%
- activity at 0.25 µM (MtbCoaBC [1]; 0.25 uM 2e, replicate R3, read-out: Activity % R3): 62.6%
- Activity R3 (MtbCoaBC [1]; 0.25 uM 2e, replicate R3): 0.0001138
- inhibition at 0.5 µM (MtbCoaBC [1]; 0.5 uM 2e, replicate R1, read-out: Inhibition % R1): 54.7%
- activity at 0.5 µM (MtbCoaBC [1]; 0.5 uM 2e, replicate R1, read-out: Activity % R1): 45.3%
- Activity R1 (MtbCoaBC [1]; 0.5 uM 2e, replicate R1): 0.000082371
- inhibition at 0.5 µM (MtbCoaBC [1]; 0.5 uM 2e, replicate R2, read-out: Inhibition % R2): 61.3%
- activity at 0.5 µM (MtbCoaBC [1]; 0.5 uM 2e, replicate R2, read-out: Activity % R2): 38.7%
- inhibition at 0.5 µM (MtbCoaBC [1]; 0.5 uM 2e, replicate R3, read-out: Inhibition % R3): 57.9%
- activity at 0.5 µM (MtbCoaBC [1]; 0.5 uM 2e, replicate R3, read-out: Activity % R3): 42.1%
- Activity R3 (MtbCoaBC [1]; 0.5 uM 2e, replicate R3): 0.000076593
- inhibition at 1 µM (MtbCoaBC [1]; 1 uM 2e, replicate R1, read-out: Inhibition % R1): 69.6%
- activity at 1 µM (MtbCoaBC [1]; 1 uM 2e, replicate R1, read-out: Activity % R1): 30.4%
- Activity R1 (MtbCoaBC [1]; 1 uM 2e, replicate R1): 0.000055348
- inhibition at 1 µM (MtbCoaBC [1]; 1 uM 2e, replicate R2, read-out: Inhibition % R2): 78.2%
- activity at 1 µM (MtbCoaBC [1]; 1 uM 2e, replicate R2, read-out: Activity % R2): 21.8%
- inhibition at 1 µM (MtbCoaBC [1]; 1 uM 2e, replicate R3, read-out: Inhibition % R3): 75.2%
- activity at 1 µM (MtbCoaBC [1]; 1 uM 2e, replicate R3, read-out: Activity % R3): 24.8%
- Activity R3 (MtbCoaBC [1]; 1 uM 2e, replicate R3): 0.000045005
- inhibition at 2 µM (MtbCoaBC [1]; 2 uM 2e, replicate R1, read-out: Inhibition % R1): 96.5%
- activity at 2 µM (MtbCoaBC [1]; 2 uM 2e, replicate R1, read-out: Activity % R1): 3.46%
- Activity R1 (MtbCoaBC [1]; 2 uM 2e, replicate R1): 0.000006285
- inhibition at 2 µM (MtbCoaBC [1]; 2 uM 2e, replicate R2, read-out: Inhibition % R2): 91.3%
- activity at 2 µM (MtbCoaBC [1]; 2 uM 2e, replicate R2, read-out: Activity % R2): 8.65%
- inhibition at 2 µM (MtbCoaBC [1]; 2 uM 2e, replicate R3, read-out: Inhibition % R3): 93%
- activity at 2 µM (MtbCoaBC [1]; 2 uM 2e, replicate R3, read-out: Activity % R3): 6.96%
- Activity R3 (MtbCoaBC [1]; 2 uM 2e, replicate R3): 0.000012661
- IC50 (MtbCoaBC [1]): 3 ± 0.2 µM
- IC50 (MtbCoaBC [2]): 2.2 µM
- MIC (M. tuberculosis H37Rv; 7H9/ADC/Glycerol): > 250 µM
- MIC (M. tuberculosis H37Rv; GAST/Fe): 125 µM (≈ 33.8 µg/mL)

Structure (SMILES): Oc1ccc(Cc2ccc(O)c(O)c2O)cc1 [compound 1c]
- IC50 (MtbCoaBC [1]): 4.6 ± 0.4 µM
- remaining activity at 0.03125 µM (MtbCoaBC [1]; uM 1c 0.03125 as printed, replicates R1-R3): 94.6%
- remaining activity at 0.0625 µM (MtbCoaBC [1]; uM 1c 0.0625 as printed, replicates R1-R3): 87.8%
- inhibition at 0.0625 µM (MtbCoaBC [1]; uM 1c 0.0625 as printed, replicates R1-R3, read-out: Inhibition %): 17.8%
- inhibition at […] (MtbCoaBC [1]; [3]): 29.1%
- remaining activity at […] (MtbCoaBC [1]; [3]): 74.8%
- remaining activity at 0.25 µM (MtbCoaBC [1]; uM 1c 0.25 as printed, replicates R1-R3): 65.6%
- inhibition at 0.25 µM (MtbCoaBC [1]; uM 1c 0.25 as printed, replicates R1-R3, read-out: Inhibition %): 40.6%
- remaining activity at 0.5 µM (MtbCoaBC [1]; uM 1c 0.5 as printed, replicates R1-R3): 40.9%
- inhibition at 0.5 µM (MtbCoaBC [1]; uM 1c 0.5 as printed, replicates R1-R3, read-out: Inhibition %): 68.6%
- inhibition at 1 µM (MtbCoaBC [1]; uM 1c 1 as printed, replicates R1-R3, read-out: Inhibition %): 89.7%
- inhibition at 2 µM (MtbCoaBC [1]; uM 1c 2 as printed, replicates R1-R3, read-out: Inhibition %): 95%
- IC50 (MtbCoaBC [2]): 4.7 µM
- MIC (M. tuberculosis H37Rv; 7H9/ADC/Glycerol): > 250 µM
- MIC (M. tuberculosis H37Rv; GAST/Fe): 125 µM (≈ 29 µg/mL)

Source: paper PMC7794376 (Nature Communications, 2021)
